No end group written: not given here.
Tests used:
trypsin = assay: Protease sensitivity testing (residual activity by spot-on-lawn assay); assay type: in vitro ADME; conditions: 1 mg/mL trypsin in 50 mM phosphate buffer pH 8, 1 h at 37 °C, bawcin at 1×, 2×, 4× the MIC, spot-on-lawn against M. luteus, triplicate
Procedure: (§1) The MIC of bawcin against each bacterial strain was determined using the spot-on-lawn assay as described previously with modifications. A Mueller Hinton (MH) double-agar plate was prepared by pouring 5 mL of 0.75% MH agar inoculated with 50 µL of 0.10 OD625 bacterial suspension onto 20 mL of dried 1.5% MH agar. Bawcin diluted with sterile water to 128, 64, 32, 16, 8, 4, 2, and 1 µM was spotted in 10 µL aliquots onto the top agar layer, along with 10 µL of an antibiotic positive control (ampicillin or kanamycin) and sterile water negative control. Plates were incubated at 37 °C for 16–20 h and the MIC was identified as the lowest concentration in which a zone of inhibition was observed, where partial bacterial growth within the zone of inhibition was considered HR. Assays were performed in triplicate.
(§2) Protease stability testing was evaluated as described previously with modification. Papain (Scholar Chemistry, Rochester, NY, USA), pepsin (Northwest Scientific, Billings, MT, USA), trypsin (Sigma-Aldrich, Burlington, MA, USA), alpha-chymotrypsin (Worthington, Lakewood, NJ, USA), and proteinase K (Fisher Scientific, Ottawa, ON, Canada) were prepared to a final concentration of 1 mg/mL in 50 mM phosphate buffer adjusted to pH 2 (pepsin), 6 (papain), and 8 (proteinase K, trypsin, alpha-chymotrypsin). Bawcin was combined with each protease to final concentrations of 1×, 2×, and 4× the MIC. Bawcin’s residual antimicrobial activity against M. luteus was determined via spot-on-lawn assay as described above. The following samples were spotted for each assay: (1) protease combined with bawcin at each concentration, bawcin alone at each concentration, buffer alone, protease in buffer alone, ampicillin (positive control), and sterile water (negative control), where all solutions were incubated for 1 h at 37 °C prior to spotting except ampicillin and sterile water. Assays were performed in triplicate.

proteinase K = biological target: T1, proteinase K (Parengyodontium album, UniProt P06873); assay: as above; assay type: in vitro ADME; conditions: 1 mg/mL proteinase K in 50 mM phosphate buffer pH 8, 1 h at 37 °C, bawcin at 1×, 2×, 4× the MIC, spot-on-lawn against M. luteus, triplicate
T1 construct: purchased Fisher Scientific
T1 sequence (P06873 106-384): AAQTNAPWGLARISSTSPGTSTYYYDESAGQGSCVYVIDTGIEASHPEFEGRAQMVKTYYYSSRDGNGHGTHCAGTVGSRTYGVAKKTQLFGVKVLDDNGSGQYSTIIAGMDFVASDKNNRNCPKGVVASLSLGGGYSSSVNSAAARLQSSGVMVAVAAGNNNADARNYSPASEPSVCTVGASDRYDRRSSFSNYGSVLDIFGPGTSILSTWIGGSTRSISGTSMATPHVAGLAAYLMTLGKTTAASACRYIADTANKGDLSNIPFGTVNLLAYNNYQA
Procedure: as §1, §2

pepsin = biological target: T2, pepsin (Sus scrofa, UniProt P00791); assay: as above; assay type: in vitro ADME; conditions: 1 mg/mL pepsin in 50 mM phosphate buffer pH 2, 1 h at 37 °C, bawcin at 1×, 4× the MIC (8, 16, 32 µM), spot-on-lawn against M. luteus, triplicate
T2 construct: purchased Northwest Scientific
T2 sequence (P00791 60-385): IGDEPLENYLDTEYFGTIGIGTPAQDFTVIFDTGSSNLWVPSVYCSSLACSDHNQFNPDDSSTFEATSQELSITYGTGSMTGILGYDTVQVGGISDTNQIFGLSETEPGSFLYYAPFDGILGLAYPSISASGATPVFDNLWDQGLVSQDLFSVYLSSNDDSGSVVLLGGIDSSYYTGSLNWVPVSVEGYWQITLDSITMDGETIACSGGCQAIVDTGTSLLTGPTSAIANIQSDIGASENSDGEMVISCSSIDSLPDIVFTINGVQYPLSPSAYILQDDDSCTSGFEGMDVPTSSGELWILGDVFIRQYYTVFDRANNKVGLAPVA
Procedure: as §1, §2

papain = biological target: T3, papain (Carica papaya, UniProt P00784); assay: as above; assay type: in vitro ADME; conditions: spot-on-lawn against M. luteus, triplicate
T3 construct: purchased Scholar Chemistry
T3 sequence (P00784 134-345): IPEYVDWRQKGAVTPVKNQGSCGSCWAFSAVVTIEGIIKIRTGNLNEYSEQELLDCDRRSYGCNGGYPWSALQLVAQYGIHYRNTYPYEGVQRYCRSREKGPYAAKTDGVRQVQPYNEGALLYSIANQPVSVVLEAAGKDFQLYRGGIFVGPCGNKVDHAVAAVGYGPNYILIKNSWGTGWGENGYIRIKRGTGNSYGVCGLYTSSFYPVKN
Procedure: as §1, §2

alpha-chymotrypsin = biological target: T4, alpha-chymotrypsin (Bos taurus, UniProt P00766); assay: as above; assay type: in vitro ADME; conditions: 1 mg/mL alpha-chymotrypsin in 50 mM phosphate buffer pH 8, 1 h at 37 °C, bawcin at 1×, 2×, 4× the MIC, spot-on-lawn against M. luteus, triplicate
T4 construct: purchased Worthington
Procedure: as §1, §2

[1] = system: Micrococcus luteus (Ward’s 85W 0966); assay type: cell-based
Procedure: as §1

[2] = system: Bacillus subtilis (Ward’s 85W 1650); assay type: cell-based
Procedure: as §1

[3] = system: Lactobacillus casei (Ward’s 85W 1682); assay type: cell-based
Procedure: as §1

[4] = system: Enterococcus faecalis (Ward’s 85W 1100); assay type: cell-based
Procedure: as §1

[5] = system: Listeria monocytogenes ATCC 19115; assay type: cell-based
Procedure: as §1

[6] = system: Bacillus cereus (Ward’s 85W 0200); assay type: cell-based
Procedure: as §1

[7] = system: Staphylococcus aureus ATCC 6538; assay type: cell-based
Procedure: as §1

[8] = system: Lactococcus lactis ssp. lactis (Ward’s 85W 1774); assay type: cell-based
Procedure: as §1

[9] = system: Lactobacillus delbruekii ssp. bulgaricus (VWR 470179-126); assay type: cell-based
Procedure: as §1

MLSFAKLVARLSASKAKWAWNNKGKVVEWIKNGATFEWISNKIDQMMG [bawcin]
Residual antimicrobial activity in the presence of trypsin (trypsin): lost antimicrobial activity at all concentrations tested | Residual antimicrobial activity in the presence of proteinase K (proteinase K): lost antimicrobial activity at all concentrations tested | Residual antimicrobial activity when combined with pepsin (pepsin): only at 4× the MIC (with HR) | Residual antimicrobial activity when combined with papain (papain; 1 mg/mL papain in 50 mM phosphate buffer pH 6, 1 h at 37 °C, bawcin at 1×, 2×, 4× the MIC (8, 16, 32 µM)): retained its antimicrobial activity | Lowest bawcin concentration remaining active in combination with papain (papain; 1 mg/mL papain, pH 6, 1 h at 37 °C, 32, 16, 8 µM tested): 8 µM | Residual antimicrobial activity in the presence of alpha-chymotrypsin (alpha-chymotrypsin): lost antimicrobial activity at all concentrations tested | MIC [1]: 4 µM | MIC [2]: 8 µM | MIC [3]: 8 µM | MIC [4]: 32 µM | MIC [5]: 8 µM | MIC [6]: 16 µM | MIC [7]: 16 µM | MIC [8]: 4 µM | MIC [9]: 8 µM
